This is an account of results in patent US7125847B1, “Mechanically activated channel blocker” (priority 2000, dated 2006).

“Also recorded” adds a separate entry of the source.

One assay relates to perfused rabbit hearts. Description: Stretch-induced atrial fibrillation in perfused rabbit hearts. The text has this: To illustrate this embodiment, fibrillation was initiated in perfused rabbit hearts with a burst of high-frequency stimulation FIG. 10A. Stretching the atrium chamber increased the incidence and duration of fibrillation (FIG. 10A–C). At pressures above 12 cm H2O, the fibrillation became sustained and the probability of sustained fibrillation (for, longer than 60 s) approached unity. The probability of inducing fibrillation was increased by stimulating the heart with a short burst of high-frequency pacing before each measurement (arrow in FIG. 10b). Perfusion with 170 nM GsMtx-4 suppressed both the incidence (FIG. 10c) and duration (FIG. 10d) of fibrillation in all hearts (n=10).

Assay [1] has as its system whole-cell swelling-activated currents in adult rat astrocytes. In words: Whole-cell (Nystatin perforated patch) currents in adult rat astrocytes, isotonic and hypotonic swelling. Type of assay: cell-based. Particulars: for estimated reduction in swelling-activated current: relative to mean before and after controls. As to the method:
It is considered that part of the swelling activated currents are attributable to SACs. To illustrate this embodiment, adult rat astrocytes were cultured as described above. Whole cell current was measured by the Nystatin perforated patch. Bath saline was the same as in Example 2. Pipette saline consisted of: KCl 80 mM, K2SO4 30 mM, NaCl 10 mM, MgSO4 3 mM, CaCl20.13 mM, EGTA 0.23 mM and Hepes 10 mM, pH 7.3. Nystatin was dissolved in pipette saline to a final concentration of […]. After patch formation, access resistance was allowed to drop to ˜15 MW (uncompensated), after which the series resistance compensation was set at ˜65%, and prediction was set to ˜75%. Whole cell capacitance measurements ranged from ˜25–50 pF. Whole cell currents were monitored by either a voltage step protocol shown in FIG. 7, or by 600 ms voltage ramps. During hypotonic swelling the cell was perfused initially with isotonic saline (bath saline with 160 mM mannitol replacing 80 mM NaCl) before switching to hypotonic saline (isotonic saline minus 140 mM mannitol). The BPS-8 perfusion system was used to rapidly (<200 ms) change the bathing solution. Peak currents were measured at 3–5 ms into voltage steps.

Consider “GCLEFWWKCNPNDDKCCRPKLKCSKLFKLCNFSFGK [GsMTx-4]”, for which the duration of fibrillation entry with perfused rabbit hearts (170 nM perfusion) is reported as “decreased the average time to spontaneous recovery from AF; also recorded: suppressed”. The incidence of fibrillation result with perfused rabbit hearts (170 nM perfusion, n=10 hearts) is “suppressed”. Also, the “stretch-induced shortening of the refractory period” value in the assay on perfused rabbit hearts (170 nM, n=10) was “did not block”. For the same sequence, the sustained fibrillation entry in the assay with perfused rabbit hearts (170 nM, pressures below 17.5 cm H2O) is on record as “completely inhibited”. For the same sequence, in assay [1] (5 μM GsMTx-4), the “change in reversal potential of swelling-activated current” value is listed as “+2 mV”. The “effect on whole-cell currents in isotonic saline” value in assay [1] (5 μM GsMTx-4, 30 to 120 s after perfusion) is reported as “no significant difference”. For the same sequence, the “reduction of peak swelling-activated current response” value in assay [1] (5 μM, 30 seconds after hypotonic exposure) is “about 75%”. The “estimated reduction in swelling-activated current” value was around 38% in assay [1] (5 μM, at +100 mV) and around 48% in assay [1] (5 μM, at −100 mV).
